The subject of series [1] is cos 7 (monkey kidney-derived) cells. Description: MTT-based toxicology assay. As to conditions: 1 mg/mL, two hours; preliminary results. It is filed as cell-based. As to the method:
Toxicity testing was performed on the example complexes 1-5 as well as the corresponding ligands against cos 7 eukaryotic cells. Cytotoxicity was assessed using the MTT-based toxicology assay (Sigma-Aldrich; TOX1 assay kit) according to the manufacturer's instructions. Compounds were added to cultured cos 7 (monkey kidney-derived) cells at 1 mg/mL and 0.5 mg/mL for two hours. The MTT reagent was then added and cells were incubated at 37° C. for a further two hours. Following incubation, MTT solubilisation solution was added and mixed. Absorbance results were measured on a Tecan plate reader at 690 nm (background reading) and again at 570 nm. Results were calculated after subtracting the background reading (690 nm) from the values obtained at 570 nm. Cell viability was expressed as a normalised percentage against the blank (medium-only) negative controls. All assays were performed in duplicate.
For orientation: Tetrazolium assays rely on reduction of a dye to a coloured formazan, in cell work by metabolically active cells.

Another series relates to E. coli. The experiment in a line: Test 1: colony count after incubation in Lysogeny broth culture. To be noted: for Colony E. coli: Table 1a, 10 mg in 5 mL culture, 2 hours at 37° C., Blank 8.00E+08 (examples), 6.40E+08 (second Blank); for inhibition of growth at 2000 µg/mL: Escherichia coli, 2 h, read-out: Reduction in bacterial growth (%) E. coli. It is filed as cell-based. As to the method:
(§1) Bacteria were grown in […] Lysogeny broth (LB), shaking at 37° C. to an optical density (OD) of 0.6 (2-3 hr). The culture was divided in […]. One of the cultures was used as a control, containing no organobismuth(III) phosphinate complex. To the other culture, 10 mg of the appropriate organobismuth (III) phosphinate complex was added. The control and organobismuth(III) phosphinate complex-containing cultures were then incubated for 2 hours at 37° C. with shaking. An aliquot was removed from each culture, serially diluted and 50 uL spread on lysogeny broth plates (˜1 in 10^7 gives countable colony numbers for the wild type controls). The plates were incubated overnight at 37° C. The colonies were counted and multiplied by the dilution factor to determine the colony-forming unit (cfu)/ml of the original culture.
(§2) The experiments were also repeated in a lower concentration (0.5 mg/mL) in accordance with the procedure above, which is also shown in Table 2.

The test system of another series is S. aureus. The series is described as above. To be noted: for Colony S. aureus: Table 1a, 10 mg in 5 mL culture, 2 hours at 37° C., Blank 8.00E+08 (examples), 4.00E+08 (second Blank); for inhibition of growth at 2000 µg/mL: Staphylococcus aureus, 2 h, read-out: Reduction in bacterial growth (%) S. aureus. It counts as cell-based. As to the method:
as §1, §2

In another series the test system is MRSA. The experiment in a line: Test 3: complex incorporated in agar, colony growth. It is filed as cell-based, Staphylococcus aureus. As to conditions: 1 mg in agar (20 mL). As to the method:
(§3) The organobismuth (III) phosphinate complex (10 mg or 1 mg) was spread at the bottom of a petri dish. 20 mL of agar was poured on top, before allowing to dry and being stored in a cool dry place. MRSA and VRE were grown in 40 mL BHI with shaking at 37° C. to an OD (optical density) of 0.6 (2-3 hr). The bacteria were then grown for a further 2 hours at 37° C. The bacteria were then plated (at no dilution, 10^3-fold dilution, and 10^4-fold dilution on agar plates containing organobismuth (III) phosphinate and control plates containing no organobismuth (III) phosphinate. The plates were incubated overnight at 37° C. The colonies were counted and multiplied by the dilution factor to determine the colony-forming unit (cfu)/ml of the original culture.

For a further series, the system named is VRE. The description is as above. To be noted: 1 mg in agar (20 mL). It counts as cell-based, Enterococcus. As to the method: as §3
Setting [2] is: 0.5 mg/mL, normalised against the Blank sample.
Where [3] appears, read: 2 mg/mL, normalised against the Blank sample.

Where two headings read alike, the source gives them in different places.

Take `O=P([O][Bi]([O]P(=O)(c1ccccc1)c1ccccc1)[c]1ccccc1)(c1ccccc1)c1ccccc1` [Example 1, Phenyl bismuth bis(diphenylphosphinate)]: in series [1], the “toxicity (in words)” value is “relatively non-toxic”.
Consider `COc1ccc(P(=O)([O][Bi]([O]P(=O)(c2ccc(OC)cc2)c2ccc(OC)cc2)[c]2ccccc2)c2ccc(OC)cc2)cc1` [Example 2, Phenyl bismuth bis(bis(4-methoxyphenyl)phosphinate)], for which the “Reduction in bacterial growth (%) E. coli” value in the series on E. coli (setting [2]) and with E. coli (setting [3]) was 100.00% in each case. Further, the “Colony E. coli” value in the series with E. coli turned out to be 1.50E+01 cfu/ml. The entries for the “Reduction in bacterial growth (%) S. aureus” value with S. aureus (setting [2]) and in the series on S. aureus (setting [3]) were 40.00% and 100.00%, respectively. Moreover, the “Colony S. aureus” value with S. aureus turned out to be 0.00E+00 cfu/ml.
With `O=[N+]([O-])c1cccc(P(=O)([O][Bi]([O]P(=O)(c2cccc([N+](=O)[O-])c2)c2cccc([N+](=O)[O-])c2)[c]2ccccc2)c2cccc([N+](=O)[O-])c2)c1` [Example 3, Phenyl bismuth bis(bis(3-nitrophenyl)phosphinate)], the “Reduction in bacterial growth (%) E. coli” value in the series with E. coli (setting [2]) was 97.00%; with E. coli (setting [3]), 100.00%. The “Colony E. coli” value in the series on E. coli stood at 0.00E+00 cfu/ml. Further, the “Reduction in bacterial growth (%) S. aureus” value in the series on S. aureus (setting [2]) is on record as 90.00%; in the series with S. aureus (setting [3]), 100.00%. In the series on S. aureus, the “Colony S. aureus” value was found to be 0.00E+00 cfu/ml. Further, the “bacterial growth on treated agar (in words)” value in the series with MRSA and in the series on VRE was “no bacterial growth was observed” throughout.
For the compound `O=[PH]([O][Bi]([O][PH](=O)c1ccccc1)[c]1ccccc1)c1ccccc1` (stereo not drawn) [Example 4, Phenyl bismuth bis(phenylphosphinate)], in series [1], the “toxicity (in words)” value is on record as “relatively non-toxic”.
With `CP(C)(=O)[O][Bi]([O]P(C)(C)=O)[c]1ccccc1` [Example 5, Phenyl Bismuth bis(dimethylphosphinate)], the “toxicity (in words)” value in series [1] is recorded as “relatively non-toxic”.
Consider `O=[N+]([O-])c1cccc(P(=O)(O)c2cccc([N+](=O)[O-])c2)c1` [bis(3-nitrophenyl)phosphinic acid, Bis(3-nitrophenyl)phosphinic acid], for which the inhibition of growth at 2000 µg/mL came to 90% with E. coli (setting [3]) and 0% in the series on S. aureus (setting [3]). In the series with E. coli, the “Colony E. coli” value is given as 8.00E+07 cfu/ml. Further, the “Colony S. aureus” value in the series on S. aureus was 8.00E+08 cfu/ml.
Taken in the same sequence, the figures for `COc1ccc(P(=O)(O)c2ccc(OC)cc2)cc1` [bis(4-methoxyphenyl)phosphinic acid] were 90%, 25%, 8.00E+07 cfu/ml and 6.00E+08 cfu/ml.
Turning to `CP(C)(=O)O` [dimethyl phosphinic acid], in the series on E. coli, the inhibition of growth at 2000 µg/mL came to 78.8% and the “Colony E. coli” value came out at 1.70E+08 cfu/ml. In the series with S. aureus, the inhibition of growth at 2000 µg/mL worked out at 25% and the “Colony S. aureus” value was 6.00E+08 cfu/ml.
Regarding `O=P(O)(c1ccccc1)c1ccccc1` [diphenylphosphinic acid], the figures for the inhibition of growth at 2000 µg/mL in the series with E. coli (setting [3]) and in the series with S. aureus (setting [3]) were 70% and 0%, respectively. In the series on E. coli, the “Colony E. coli” value came to 2.40E+08 cfu/ml. In addition, the “Colony S. aureus” value with S. aureus came to 8.00E+08 cfu/ml.
`O=[PH](O)c1ccccc1` [phenylphosphinic acid]: in the series with E. coli, the inhibition of growth at 2000 µg/mL amounted to 60% and the “Colony E. coli” value amounted to 3.20E+08 cfu/ml. In the series on S. aureus, the inhibition of growth at 2000 µg/mL was 0% and the “Colony S. aureus” value came to 8.00E+08 cfu/ml.
As to `c1cc[c]([Bi]([c]2ccccc2)[c]2ccccc2)cc1` [triphenylbismuth], the “bacterial growth on treated agar (in words)” value in the series with MRSA and in the series on VRE was “grew to a comparable number as the blank” each time.

The values above are taken from patent US10501487B2, “Antibacterial bismuth complexes” (priority 2015, dated 2019).
